Source: ChEMBL document CHEMBL1159136, “Dipeptide mimetics can substitute for the receptor activation domain resulting in highly potent analogues of hPTH(136)” (Bioorg Med Chem Lett, 1996)
Square brackets hold non-standard residues; d marks the D form. Peptide text beside a SMILES is read from it. * marks the point of attachment. X6 = CC(=O)N(C(=O)[C@H](C)N)[C@H](C(=O)*)C(C)C; X8 = C[C@H](N)/C(F)=C/[C@@H](Cc1ccccc1)C(=O)*; X7 = C[C@H](/C=C(\Cl)[C@H](C)N)C(=O)*; X5 = C[C@H](/C=C(\F)[C@H](C)N)C(=O)*; X4 = CC(=O)N(CC(=O)*)C(=O)[C@H](C)N; NMeV = CN[C@H](C(=O)O)C(C)C; N(iPr)Gly = CC(C)NCC(=O)O; NMeA = CN[C@@H](C)C(=O)O

Experiments:
UMR106-06 [1] = test: Compound was evaluated for the intrinsic activity for accumulation of cyclic AMP in UMR10606 (rat osteosarcoma) cells.; type: functional
OK-1 [2] = test: Accumulation of cyclic AMP in OK-1 cells.; type: functional, cell-based, opossum; details: opossum, OK-1
UMR106-06 [3] = test: Compound was evaluated for the accumulation of cyclic AMP in UMR10606 (rat osteosarcoma) cells.; type: functional, cell-based; details: Rattus norvegicus, UMR106-06
OK-1 [4] = test: Compound was evaluated for the intrinsic activity for accumulation of cyclic AMP in OK-1 cells.; type: functional, opossum
OK-1 [5] = test: Displacement of [125I]-chick PTHrP-(1-36)-NH2 from opossum (OK-1) kidney cells; type: functional

Row | SMILES | Intrinsic activity (UMR106-06 [1]) | EC50 (OK-1 [2]) [nM] | EC50 (UMR106-06 [3]) [nM] | Intrinsic activity (OK-1 [4]) | pKD (OK-1 [5])
1 | CC[C@H](C)[C@H](NC(=O)[C@H](CCC(=O)O)NC(=O)[C@H](CO)NC(=O)[C@H](C)/C=C(\Cl)[C@H](C)N)C(=O)N[C@@H](CCC(N)=O)C(=O)N[C@@H](CC(C)C)C(=O)N[C@@H](CCSC)C(=O)N[C@@H](Cc1c[nH]cn1)C(=O)N[C@@H](CC(N)=O)C(=O)N[C@@H](CC(C)C)C(=O)NCC(=O)N[C@@H](CCCCN)C(=O)N[C@@H](Cc1c[nH]cn1)C(=O)N[C@@H](CC(C)C)C(=O)N[C@@H](CC(N)=O)C(=O)N[C@@H](CO)C(=O)N[C@@H](CCSC)C(=O)N[C@@H](CCC(=O)O)C(=O)N[C@@H](CCCN=C(N)N)C(=O)N[C@H](C(=O)N[C@@H](CCC(=O)O)C(=O)N[C@@H](Cc1c[nH]c2ccccc12)C(=O)N[C@@H](CC(C)C)C(=O)N[C@@H](CCCN=C(N)N)C(=O)N[C@@H](CCCCN)C(=O)N[C@@H](CCCCN)C(=O)N[C@@H](CC(C)C)C(=O)N[C@@H](CCC(N)=O)C(=O)N[C@@H](CC(=O)O)C(=O)N[C@H](C(=O)N[C@@H](Cc1c[nH]cn1)C(=O)N[C@@H](CC(N)=O)C(=O)N[C@@H](Cc1ccccc1)C(=O)N[C@H](C(=O)N[C@@H](C)C(N)=O)C(C)C)C(C)C)C(C)C (X7-SEIQLMHNLGKHLNSMERVEWLRKKLQDVHNFVA-NH2) | 1 | 5.5 | 5 | 1 | 8.9
2 | CC[C@H](C)[C@H](NC(=O)[C@H](CCC(=O)O)NC(=O)[C@H](CO)NC(=O)CN(C(=O)[C@H](C)N)C(C)C)C(=O)N[C@@H](CCC(N)=O)C(=O)N[C@@H](CC(C)C)C(=O)N[C@@H](CCSC)C(=O)N[C@@H](Cc1c[nH]cn1)C(=O)N[C@@H](CC(N)=O)C(=O)N[C@@H](CC(C)C)C(=O)NCC(=O)N[C@@H](CCCCN)C(=O)N[C@@H](Cc1c[nH]cn1)C(=O)N[C@@H](CC(C)C)C(=O)N[C@@H](CC(N)=O)C(=O)N[C@@H](CO)C(=O)N[C@@H](CCSC)C(=O)N[C@@H](CCC(=O)O)C(=O)N[C@@H](CCCN=C(N)N)C(=O)N[C@H](C(=O)N[C@@H](CCC(=O)O)C(=O)N[C@@H](Cc1c[nH]c2ccccc12)C(=O)N[C@@H](CC(C)C)C(=O)N[C@@H](CCCN=C(N)N)C(=O)N[C@@H](CCCCN)C(=O)N[C@@H](CCCCN)C(=O)N[C@@H](CC(C)C)C(=O)N[C@@H](CCC(N)=O)C(=O)N[C@@H](CC(=O)O)C(=O)N[C@H](C(=O)N[C@@H](Cc1c[nH]cn1)C(=O)N[C@@H](CC(N)=O)C(=O)N[C@@H](Cc1ccccc1)C(=O)N[C@H](C(=O)N[C@@H](C)C(N)=O)C(C)C)C(C)C)C(C)C (H-A[N(iPr)Gly]SEIQLMHNLGKHLNSMERVEWLRKKLQDVHNFVA-NH2) | 0.05 | 97.2 | 30 | 0.5 | 7.4
3 | CC[C@H](C)[C@H](NC(=O)[C@H](CCC(=O)O)NC(=O)[C@H](CO)NC(=O)[C@H](C)/C=C(\F)[C@H](C)N)C(=O)N[C@@H](CCC(N)=O)C(=O)N[C@@H](CC(C)C)C(=O)N[C@@H](CCSC)C(=O)N[C@@H](Cc1c[nH]cn1)C(=O)N[C@@H](CC(N)=O)C(=O)N[C@@H](CC(C)C)C(=O)NCC(=O)N[C@@H](CCCCN)C(=O)N[C@@H](Cc1c[nH]cn1)C(=O)N[C@@H](CC(C)C)C(=O)N[C@@H](CC(N)=O)C(=O)N[C@@H](CO)C(=O)N[C@@H](CCSC)C(=O)N[C@@H](CCC(=O)O)C(=O)N[C@@H](CCCN=C(N)N)C(=O)N[C@H](C(=O)N[C@@H](CCC(=O)O)C(=O)N[C@@H](Cc1c[nH]c2ccccc12)C(=O)N[C@@H](CC(C)C)C(=O)N[C@@H](CCCN=C(N)N)C(=O)N[C@@H](CCCCN)C(=O)N[C@@H](CCCCN)C(=O)N[C@@H](CC(C)C)C(=O)N[C@@H](CCC(N)=O)C(=O)N[C@@H](CC(=O)O)C(=O)N[C@H](C(=O)N[C@@H](Cc1c[nH]cn1)C(=O)N[C@@H](CC(N)=O)C(=O)N[C@@H](Cc1ccccc1)C(=O)N[C@H](C(=O)N[C@@H](C)C(N)=O)C(C)C)C(C)C)C(C)C (X5-SEIQLMHNLGKHLNSMERVEWLRKKLQDVHNFVA-NH2) | 0.95 | 9.1 | 13 | 0.6 | 8.2
4 | CC[C@H](C)[C@H](NC(=O)[C@H](CCC(=O)O)NC(=O)[C@H](CO)NC(=O)CN(C(C)=O)C(=O)[C@H](C)N)C(=O)N[C@@H](CCC(N)=O)C(=O)N[C@@H](CC(C)C)C(=O)N[C@@H](CCSC)C(=O)N[C@@H](Cc1c[nH]cn1)C(=O)N[C@@H](CC(N)=O)C(=O)N[C@@H](CC(C)C)C(=O)NCC(=O)N[C@@H](CCCCN)C(=O)N[C@@H](Cc1c[nH]cn1)C(=O)N[C@@H](CC(C)C)C(=O)N[C@@H](CC(N)=O)C(=O)N[C@@H](CO)C(=O)N[C@@H](CCSC)C(=O)N[C@@H](CCC(=O)O)C(=O)N[C@@H](CCCN=C(N)N)C(=O)N[C@H](C(=O)N[C@@H](CCC(=O)O)C(=O)N[C@@H](Cc1c[nH]c2ccccc12)C(=O)N[C@@H](CC(C)C)C(=O)N[C@@H](CCCN=C(N)N)C(=O)N[C@@H](CCCCN)C(=O)N[C@@H](CCCCN)C(=O)N[C@@H](CC(C)C)C(=O)N[C@@H](CCC(N)=O)C(=O)N[C@@H](CC(=O)O)C(=O)N[C@H](C(=O)N[C@@H](Cc1c[nH]cn1)C(=O)N[C@@H](CC(N)=O)C(=O)N[C@@H](Cc1ccccc1)C(=O)N[C@H](C(=O)N[C@@H](C)C(N)=O)C(C)C)C(C)C)C(C)C (X4-SEIQLMHNLGKHLNSMERVEWLRKKLQDVHNFVA-NH2) | 0.8 | 117 | 958 | 0.2 | 7.1
5 | CC[C@H](C)[C@H](NC(=O)[C@H](CCC(=O)O)NC(=O)[C@H](CO)NC(=O)[C@H](C(C)C)N(C)C(=O)[C@H](C)NC)C(=O)N[C@@H](CCC(N)=O)C(=O)N[C@@H](CC(C)C)C(=O)N[C@@H](CCSC)C(=O)N[C@@H](Cc1c[nH]cn1)C(=O)N[C@@H](CC(N)=O)C(=O)N[C@@H](CC(C)C)C(=O)NCC(=O)N[C@@H](CCCCN)C(=O)N[C@@H](Cc1c[nH]cn1)C(=O)N[C@@H](CC(C)C)C(=O)N[C@@H](CC(N)=O)C(=O)N[C@@H](CO)C(=O)N[C@@H](CCSC)C(=O)N[C@@H](CCC(=O)O)C(=O)N[C@@H](CCCN=C(N)N)C(=O)N[C@H](C(=O)N[C@@H](CCC(=O)O)C(=O)N[C@@H](Cc1c[nH]c2ccccc12)C(=O)N[C@@H](CC(C)C)C(=O)N[C@@H](CCCN=C(N)N)C(=O)N[C@@H](CCCCN)C(=O)N[C@@H](CCCCN)C(=O)N[C@@H](CC(C)C)C(=O)N[C@@H](CCC(N)=O)C(=O)N[C@@H](CC(=O)O)C(=O)N[C@H](C(=O)N[C@@H](Cc1c[nH]cn1)C(=O)N[C@@H](CC(N)=O)C(=O)N[C@@H](Cc1ccccc1)C(=O)N[C@H](C(=O)N[C@@H](C)C(N)=O)C(C)C)C(C)C)C(C)C (H-[NMeA][NMeV]SEIQLMHNLGKHLNSMERVEWLRKKLQDVHNFVA-NH2) | 1 | 6.5 | 4.9 | 1 | 8.5
6 | CC[C@H](C)[C@H](NC(=O)[C@H](CCC(=O)O)NC(=O)[C@H](CO)NC(=O)[C@@H](/C=C(\F)[C@H](C)N)Cc1ccccc1)C(=O)N[C@@H](CCC(N)=O)C(=O)N[C@@H](CC(C)C)C(=O)N[C@@H](CCSC)C(=O)N[C@@H](Cc1c[nH]cn1)C(=O)N[C@@H](CC(N)=O)C(=O)N[C@@H](CC(C)C)C(=O)NCC(=O)N[C@@H](CCCCN)C(=O)N[C@@H](Cc1c[nH]cn1)C(=O)N[C@@H](CC(C)C)C(=O)N[C@@H](CC(N)=O)C(=O)N[C@@H](CO)C(=O)N[C@@H](CCSC)C(=O)N[C@@H](CCC(=O)O)C(=O)N[C@@H](CCCN=C(N)N)C(=O)N[C@H](C(=O)N[C@@H](CCC(=O)O)C(=O)N[C@@H](Cc1c[nH]c2ccccc12)C(=O)N[C@@H](CC(C)C)C(=O)N[C@@H](CCCN=C(N)N)C(=O)N[C@@H](CCCCN)C(=O)N[C@@H](CCCCN)C(=O)N[C@@H](CC(C)C)C(=O)N[C@@H](CCC(N)=O)C(=O)N[C@@H](CC(=O)O)C(=O)N[C@H](C(=O)N[C@@H](Cc1c[nH]cn1)C(=O)N[C@@H](CC(N)=O)C(=O)N[C@@H](Cc1ccccc1)C(=O)N[C@H](C(=O)N[C@@H](C)C(N)=O)C(C)C)C(C)C)C(C)C (X8-SEIQLMHNLGKHLNSMERVEWLRKKLQDVHNFVA-NH2) | 0.08 | > 1000 | 26 | <0.1 | 8.6
7 | CC[C@H](C)[C@H](NC(=O)[C@H](CCC(=O)O)NC(=O)[C@H](CO)NC(=O)[C@H](C(C)C)N(C(C)=O)C(=O)[C@H](C)N)C(=O)N[C@@H](CCC(N)=O)C(=O)N[C@@H](CC(C)C)C(=O)N[C@@H](CCSC)C(=O)N[C@@H](Cc1c[nH]cn1)C(=O)N[C@@H](CC(N)=O)C(=O)N[C@@H](CC(C)C)C(=O)NCC(=O)N[C@@H](CCCCN)C(=O)N[C@@H](Cc1c[nH]cn1)C(=O)N[C@@H](CC(C)C)C(=O)N[C@@H](CC(N)=O)C(=O)N[C@@H](CO)C(=O)N[C@@H](CCSC)C(=O)N[C@@H](CCC(=O)O)C(=O)N[C@@H](CCCN=C(N)N)C(=O)N[C@H](C(=O)N[C@@H](CCC(=O)O)C(=O)N[C@@H](Cc1c[nH]c2ccccc12)C(=O)N[C@@H](CC(C)C)C(=O)N[C@@H](CCCN=C(N)N)C(=O)N[C@@H](CCCCN)C(=O)N[C@@H](CCCCN)C(=O)N[C@@H](CC(C)C)C(=O)N[C@@H](CCC(N)=O)C(=O)N[C@@H](CC(=O)O)C(=O)N[C@H](C(=O)N[C@@H](Cc1c[nH]cn1)C(=O)N[C@@H](CC(N)=O)C(=O)N[C@@H](Cc1ccccc1)C(=O)N[C@H](C(=O)N[C@@H](C)C(N)=O)C(C)C)C(C)C)C(C)C (X6-SEIQLMHNLGKHLNSMERVEWLRKKLQDVHNFVA-NH2) | 1 | 9.9 | 15 | 0.8 | 7.9
